Test results reported in PubChem BioAssay AID330 (DTP/NCI, 2004).
Values joined by “and” are separate entries in the source; they are usually repeats but may differ in a detail not shown here. Equal entries are not always repeated. Inconclusive results and toxic doses are left out. Rule for the calls: active = survival T/C of 150% or more; inactive = T/C below 125% in these data.

Tested on: P388 leukemia ip, CD2F1 mice, survival T/C
Assay: NCI In Vivo Anticancer Drug Screen. Data for tumor model P388 Leukemia (intraperitoneal) in CD2F1 (CDF1) mice
Settings: endpoint: median survival time, higher = longer survival
Procedure, shortened: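 Mice carrying the transplanted tumor received test compound or vehicle. Survival was recorded in each group, and the value is the treated-group measurement divided by that of the vehicle-treated control group.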

[1] = dose: 60.0 mg/kg/injection, schedule: Q01DX005 (ip), vehicle: saline with Tween-80
[2] = dose: 120.0 mg/kg/injection, schedule: Q01DX005 (ip), vehicle: saline with Tween-80
[3] = dose: 240.0 mg/kg/injection, schedule: Q01DX005 (ip), vehicle: saline with Tween-80
[4] = dose: 200.0 mg/kg/injection, schedule: Q01DX005 (ip), vehicle: saline with Tween-80
[5] = dose: 25.0 mg/kg/injection, schedule: Q01DX009 (ip), vehicle: Klucel (hydroxypropylcellulose) (HPC)
[6] = dose: 50.0 mg/kg/injection, schedule: Q01DX009 (ip), vehicle: Klucel (hydroxypropylcellulose) (HPC)
[7] = dose: 100.0 mg/kg/injection, schedule: Q01DX009 (ip), vehicle: Klucel (hydroxypropylcellulose) (HPC)
[8] = dose: 200.0 mg/kg/injection, schedule: Q01DX009 (ip), vehicle: Klucel (hydroxypropylcellulose) (HPC)
[9] = dose: 50.0 mg/kg/injection, schedule: Q01DX009 (ip), vehicle: saline with Tween-80
[10] = dose: 100.0 mg/kg/injection, schedule: Q01DX009 (ip), vehicle: saline with Tween-80
[11] = dose: 50.0 mg/kg/injection, schedule: Q01DX005 (ip), vehicle: saline
[12] = dose: 100.0 mg/kg/injection, schedule: Q01DX005 (ip), vehicle: saline

Measured: T/C

CCCCN(CCCC)CCNc1ccc(C)c2sc3ccccc3c(=O)c12
inactive: dose: 12.5 mg/kg/injection, schedule: Q01DX009 (ip), vehicle: saline 100 % of control | dose: 25.0 mg/kg/injection, schedule: Q01DX009 (ip), vehicle: saline 102 % of control | dose: 50.0 mg/kg/injection, schedule: Q01DX009 (ip), vehicle: saline 102 % of control | dose: 100.0 mg/kg/injection, schedule: Q01DX009 (ip), vehicle: saline 100 % of control

O=C(O)CNC(CO)(CO)CO
inactive: dose: 60.0 mg/kg/injection, schedule: Q01DX005 (ip), vehicle: saline 102 % of control | dose: 120.0 mg/kg/injection, schedule: Q01DX005 (ip), vehicle: saline 100 % of control | dose: 240.0 mg/kg/injection, schedule: Q01DX005 (ip), vehicle: saline 97 % of control

Cc1ccc(SCc2cn(C3OC(CO)C(O)C3O)c(=O)[nH]c2=O)cc1 (centres undefined)
inactive: dose: 60.0 mg/kg/injection, schedule: Q01DX005 (ip), vehicle: Klucel (hydroxypropylcellulose) (HPC) 95 % of control and 102 % of control | dose: 120.0 mg/kg/injection, schedule: Q01DX005 (ip), vehicle: Klucel (hydroxypropylcellulose) (HPC) 95 % of control and 101 % of control | dose: 240.0 mg/kg/injection, schedule: Q01DX005 (ip), vehicle: Klucel (hydroxypropylcellulose) (HPC) 92 % of control and 95 % of control

CCOP(=O)(O)C1CCCC(C)[N-]1.CCOP(=O)(O)C1CCCC(C)[N-]1.[Ni+2] (centres undefined)
inactive: dose: 12.5 mg/kg/injection, schedule: Q04DX003 (ip), vehicle: Klucel (hydroxypropylcellulose) (HPC) 99 % of control | dose: 25.0 mg/kg/injection, schedule: Q04DX003 (ip), vehicle: Klucel (hydroxypropylcellulose) (HPC) 107 % of control | dose: 50.0 mg/kg/injection, schedule: Q04DX003 (ip), vehicle: Klucel (hydroxypropylcellulose) (HPC) 107 % of control

N#CC(c1ccccc1)c1ccc2ccccc2n1 (centres undefined)
inactive: [1] 92 % of control | [2] 86 % of control

Cc1ccc(C)c(NC(=O)CCC(=O)C(C#N)c2nc3ccccc3s2)c1 (centres undefined)
inactive: [1] 103 % of control | [2] 102 % of control | [3] 97 % of control

CCOC(=O)C1=C(c2ccco2)NN=C(c2ccccc2)C1
inactive: dose: 50.0 mg/kg/injection, schedule: Q01DX005 (ip), vehicle: saline with Tween-80 101 % of control | dose: 100.0 mg/kg/injection, schedule: Q01DX005 (ip), vehicle: saline with Tween-80 103 % of control | [4] 94 % of control

[Se]=[Re]=[Se]
inactive: [1] 96 % of control | [2] 98 % of control | [3] 109 % of control

COc1ccc(NC(=O)Nc2ccc(C#N)cc2)cc1
inactive: [1] 101 % of control | [2] 93 % of control | [3] 93 % of control

CCCCCCCCCCCCN1CN=C(N)N(C#N)C1
inactive: dose: 100.0 mg/kg/injection, schedule: Q04DX002 (ip), vehicle: saline with Tween-80 92 % of control | dose: 200.0 mg/kg/injection, schedule: Q04DX002 (ip), vehicle: saline with Tween-80 99 % of control | dose: 400.0 mg/kg/injection, schedule: Q04DX002 (ip), vehicle: saline with Tween-80 90 % of control

[Cl][Pd][Cl].[NH-]CCN1CC1
inactive: [5] 119 % of control | [6] 112 % of control | [7] 114 % of control

Clc1nc2nc(Cl)c(Cl)n2nc1Cl
inactive: dose: 6.25 mg/kg/injection, schedule: Q04DX002 (ip), vehicle: saline 109 % of control | dose: 12.5 mg/kg/injection, schedule: Q04DX002 (ip), vehicle: saline 107 % of control | dose: 25.0 mg/kg/injection, schedule: Q04DX002 (ip), vehicle: saline 106 % of control

Cc1ncc([N+](=O)[O-])n1CCOC(N)=O
inactive: [6] 100 % of control | [7] 99 % of control | [8] 99 % of control

O=[N+]([O-])c1ccc(C=Nc2ccccc2)cc1
inactive: [9] 101 % of control | [10] 101 % of control | dose: 200.0 mg/kg/injection, schedule: Q01DX009 (ip), vehicle: saline with Tween-80 97 % of control | dose: 400.0 mg/kg/injection, schedule: Q01DX009 (ip), vehicle: saline with Tween-80 96 % of control

CC(C)(C)C1=NC=CNC(C(F)(F)F)=C1
inactive: dose: 12.5 mg/kg/injection, schedule: Q01DX009 (ip), vehicle: Klucel (hydroxypropylcellulose) (HPC) 94 % of control | [5] 100 % of control | [6] 94 % of control

Cn1c(N2CCOCC2)cc2nc3ccccc3n2c1=O
inactive: [1] 96 % of control | [2] 98 % of control | [3] 96 % of control

Cc1ccc(C2ON2S(=O)(=O)c2ccc(C)cc2)cc1 (centres undefined)
inactive: [6] 113 % of control | [7] 105 % of control | [8] 100 % of control

C=CCN(CC=C)/N=N/c1nc[nH]c1C(N)=O
inactive: dose: 50.0 mg/kg/injection, schedule: Q01DX001 (ip), vehicle: saline with Tween-80 104 % of control | dose: 100.0 mg/kg/injection, schedule: Q01DX001 (ip), vehicle: saline with Tween-80 90 % of control | dose: 200.0 mg/kg/injection, schedule: Q01DX001 (ip), vehicle: saline with Tween-80 95 % of control

O=CN(CC(=O)O)CC(=O)O
inactive: [11] 100 % of control | [12] 100 % of control | dose: 200.0 mg/kg/injection, schedule: Q01DX005 (ip), vehicle: saline 102 % of control

CC1(C)C2CC=C(C[P+](c3ccccc3)(c3ccccc3)c3ccccc3)C1C2 (centres undefined)
inactive: dose: 1.25 mg/kg/injection, schedule: Q01DX009 (ip), vehicle: saline with Tween-80 119 % of control | dose: 2.5 mg/kg/injection, schedule: Q01DX009 (ip), vehicle: saline with Tween-80 119 % of control

CCC(=O)n1nc(Nc2ccccc2)c(C(=O)OC)c1C
inactive: dose: 6.25 mg/kg/injection, schedule: Q01DX005 (ip), vehicle: saline with Tween-80 99 % of control | dose: 12.5 mg/kg/injection, schedule: Q01DX005 (ip), vehicle: saline with Tween-80 94 % of control | dose: 25.0 mg/kg/injection, schedule: Q01DX005 (ip), vehicle: saline with Tween-80 94 % of control | [4] 86 % of control

CCC(C)N(CCNc1cc(OC)cc2cccnc12)CCC(C)C (centres undefined)
inactive: [11] 100 % of control | [12] 97 % of control

CCO/C=N/NS(=O)(=O)c1ccc(C)cc1
inactive: dose: 6.25 mg/kg/injection, schedule: Q01DX009 (ip), vehicle: distilled water + Tween-80 108 % of control | dose: 12.5 mg/kg/injection, schedule: Q01DX009 (ip), vehicle: distilled water + Tween-80 108 % of control | dose: 12.5 mg/kg/injection, schedule: Q01DX009 (ip), vehicle: other 104 % of control | dose: 12.5 mg/kg/injection, schedule: Q01DX009 (ip), vehicle: saline with Tween-80 105 % of control | dose: 25.0 mg/kg/injection, schedule: Q01DX009 (ip), vehicle: saline with Tween-80 98 % of control | dose: 50.0 mg/kg/injection, schedule: Q01DX009 (ip), vehicle: other 104 % of control | [9] 96 % of control | dose: 100.0 mg/kg/injection, schedule: Q01DX009 (ip), vehicle: other 98 % of control | [10] 92 % of control | dose: 200.0 mg/kg/injection, schedule: Q01DX009 (ip), vehicle: other 106 % of control

O=C(NCC(=O)N1CCCC1)N/N=C/c1ccccc1O
inactive: dose: 50.0 mg/kg/injection, schedule: Q01DX005 (ip), vehicle: Klucel (hydroxypropylcellulose) (HPC) 102 % of control | dose: 100.0 mg/kg/injection, schedule: Q01DX005 (ip), vehicle: Klucel (hydroxypropylcellulose) (HPC) 102 % of control | dose: 200.0 mg/kg/injection, schedule: Q01DX005 (ip), vehicle: Klucel (hydroxypropylcellulose) (HPC) 98 % of control
